Assay results as given in US20230085307A1, “PYRIDAZINONE COMPOUND AND HERBICIDE” (NISSAN CHEMICAL CORPORATION, priority 2019, published 2023).

What was measured:
[1] = test system: barnyard grass; experiment: Test Example 3: herbicidal effect by foliage application, Wagner pot (Table 18, symbol H); type: in vivo, barnyard grass (Echinochloa crus-galli); conditions: 320 g/ha
How it was run: (§1)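 Plants were sown in alluvial soil held under 0.1–0.5 cm standing water and grown 14 days in a greenhouse at 25–30 °C. An emulsifiable formulation, water-diluted to the set dose, was then sprayed onto the foliage, and effects were scored three weeks later using previously defined criteria.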

[2] = test system: Chinese sprangletop; experiment: Test Example 3: herbicidal effect by foliage application, Wagner pot (Table 18, symbol D); type: in vivo, chinese sprangletop (Leptochloa chinensis); conditions: 320 g/ha
How it was run: as §1

[3] = test system: rice flat sedge; experiment: Test Example 3: herbicidal effect by foliage application, Wagner pot (Table 18, symbol E); type: in vivo, rice flat sedge (Cyperus iria); conditions: 320 g/ha
How it was run: as §1

[4] = test system: southern crabgrass; experiment: Test Example 4: herbicidal effect by soil treatment (Table 19, symbol F); type: in vivo, southern crabgrass (Digitaria ciliaris); conditions: amount of applied herbicide 320 g/ha
How it was run: (§2)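 Step 1: sow seeds in sterilized diluvial soil, cover ~1.5 cm. Step 2: spray diluted emulsion onto soil surface at predetermined rate. Step 3: greenhouse, 25–30° C, three weeks. Step 4: grade effect on each plant by earlier criteria.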

[5] = test system: green foxtail; experiment: Test Example 4: herbicidal effect by soil treatment (Table 19, symbol G); type: in vivo, green foxtail (Setaria viridis); conditions: amount of applied herbicide 320 g/ha
How it was run: as §2

[6] = test system: barnyard grass; experiment: Test Example 4: herbicidal effect by soil treatment (Table 19, symbol H); type: in vivo, barnyard grass (Echinochloa crus-galli); conditions: amount of applied herbicide 320 g/ha
How it was run: as §2

[7] = test system: wild oat; experiment: Test Example 4: herbicidal effect by soil treatment (Table 19, symbol I); type: in vivo, wild oat (Avena fatua); conditions: amount of applied herbicide 320 g/ha
How it was run: as §2

[8] = test system: blackgrass; experiment: Test Example 4: herbicidal effect by soil treatment (Table 19, symbol J); type: in vivo, blackgrass (Alopecurus myosuroides); conditions: amount of applied herbicide 320 g/ha
How it was run: as §2

[9] = test system: Italian ryegrass; experiment: Test Example 4: herbicidal effect by soil treatment (Table 19, symbol K); type: in vivo, Italian ryegrass (Lolium multiflorum); conditions: amount of applied herbicide 320 g/ha
How it was run: as §2

[10] = test system: windgrass; experiment: Test Example 4: herbicidal effect by soil treatment (Table 19, symbol L); type: in vivo, windgrass (Apera spica-venti); conditions: amount of applied herbicide 320 g/ha
How it was run: as §2

[11] = test system: velvetleaf; experiment: Test Example 4: herbicidal effect by soil treatment (Table 19, symbol M); type: in vivo, velvetleaf (Abutilon theophrasti); conditions: amount of applied herbicide 320 g/ha
How it was run: as §2

[12] = test system: redroot pigweed; experiment: Test Example 4: herbicidal effect by soil treatment (Table 19, symbol N); type: in vivo, redroot pigweed (Amaranthus retroflexus); conditions: amount of applied herbicide 320 g/ha
How it was run: as §2

[13] = test system: lambsquarters; experiment: Test Example 4: herbicidal effect by soil treatment (Table 19, symbol O); type: in vivo, lambsquarters (Chenopodium album); conditions: amount of applied herbicide 320 g/ha
How it was run: as §2

[14] = test system: chickweed; experiment: Test Example 4: herbicidal effect by soil treatment (Table 19, symbol P); type: in vivo, common chickweed (Stellaria media); conditions: amount of applied herbicide 320 g/ha
How it was run: as §2

[15] = test system: false cleavers; experiment: Test Example 4: herbicidal effect by soil treatment (Table 19, symbol Q); type: in vivo, false cleavers (Galium spurium); conditions: amount of applied herbicide 320 g/ha
How it was run: as §2

[16] = test system: persian speedwell; experiment: Test Example 4: herbicidal effect by soil treatment (Table 19, symbol R); type: in vivo, Persian speedwell (Veronica persica); conditions: amount of applied herbicide 320 g/ha
How it was run: as §2

[17] = test system: southern crabgrass; experiment: Test Example 5: herbicidal effect by foliage application, plastic box (Table 20, symbol F); type: in vivo, southern crabgrass (Digitaria ciliaris); conditions: foliage application, 320 g/ha, three weeks after application
How it was run: (§3)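 Foliar spray test: emulsion formulation diluted in water to a set application rate, sprayed onto 14-day-old plants raised in diluvial soil at 25° C to 30° C under glass. Both herbicidal effect and crop effect rated visually three weeks later.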

[18] = test system: green foxtail; experiment: Test Example 5: herbicidal effect by foliage application, plastic box (Table 20, symbol G); type: in vivo, green foxtail (Setaria viridis); conditions: foliage application, 320 g/ha, three weeks after application
How it was run: as §3

[19] = test system: barnyard grass; experiment: Test Example 5: herbicidal effect by foliage application, plastic box (Table 20, symbol H); type: in vivo, barnyard grass (Echinochloa crus-galli); conditions: foliage application, 320 g/ha, three weeks after application
How it was run: as §3

[20] = test system: wild oat; experiment: Test Example 5: herbicidal effect by foliage application, plastic box (Table 20, symbol I); type: in vivo, wild oat (Avena fatua); conditions: foliage application, 320 g/ha, three weeks after application
How it was run: as §3

[21] = test system: blackgrass; experiment: Test Example 5: herbicidal effect by foliage application, plastic box (Table 20, symbol J); type: in vivo, blackgrass (Alopecurus myosuroides); conditions: foliage application, 320 g/ha, three weeks after application
How it was run: as §3

[22] = test system: Italian ryegrass; experiment: Test Example 5: herbicidal effect by foliage application, plastic box (Table 20, symbol K); type: in vivo, Italian ryegrass (Lolium multiflorum); conditions: foliage application, 320 g/ha, three weeks after application
How it was run: as §3

[23] = test system: windgrass; experiment: Test Example 5: herbicidal effect by foliage application, plastic box (Table 20, symbol L); type: in vivo, windgrass (Apera spica-venti); conditions: foliage application, 320 g/ha, three weeks after application
How it was run: as §3

[24] = test system: velvetleaf; experiment: Test Example 5: herbicidal effect by foliage application, plastic box (Table 20, symbol M); type: in vivo, velvetleaf (Abutilon theophrasti); conditions: foliage application, 320 g/ha, three weeks after application
How it was run: as §3

[25] = test system: redroot pigweed; experiment: Test Example 5: herbicidal effect by foliage application, plastic box (Table 20, symbol N); type: in vivo, redroot pigweed (Amaranthus retroflexus); conditions: foliage application, 320 g/ha, three weeks after application
How it was run: as §3

[26] = test system: lambsquarters; experiment: Test Example 5: herbicidal effect by foliage application, plastic box (Table 20, symbol O); type: in vivo, lambsquarters (Chenopodium album); conditions: foliage application, 320 g/ha, three weeks after application
How it was run: as §3

[27] = test system: chickweed; experiment: Test Example 5: herbicidal effect by foliage application, plastic box (Table 20, symbol P); type: in vivo, common chickweed (Stellaria media); conditions: foliage application, 320 g/ha, three weeks after application
How it was run: as §3

[28] = test system: false cleavers; experiment: Test Example 5: herbicidal effect by foliage application, plastic box (Table 20, symbol Q); type: in vivo, false cleavers (Galium spurium); conditions: foliage application, 320 g/ha, three weeks after application
How it was run: as §3

[29] = test system: persian speedwell; experiment: Test Example 5: herbicidal effect by foliage application, plastic box (Table 20, symbol R); type: in vivo, Persian speedwell (Veronica persica); conditions: foliage application, 320 g/ha, three weeks after application
How it was run: as §3

Compound: CCCC(=O)Oc1c(C)nn(C)c(=O)c1-c1c(-c2cc(C)c(OC)c(C)c2)sc2ccccc12 [1-075]
- herbicidal effect on H (barnyard grass), rating 0-5 [1]: 3 (Herbicidal rate of 40% or more and less than 70%)
- herbicidal effect on D (Chinese sprangletop), rating 0-5 [2]: 0 (Herbicidal rate of 5% or less (almost no effect))
- herbicidal effect on E (rice flat sedge), rating 0-5 [3]: 5 (Herbicidal rate of 90% or more (almost completely withered))
- herbicidal effect rating, F: southern crabgrass [4]: 0 (Herbicidal rate of 5% or less (almost no effect))
- herbicidal effect rating, G: green foxtail [5]: 0 (Herbicidal rate of 5% or less (almost no effect))
- herbicidal effect rating, H: barnyard grass [6]: 1 (Herbicidal rate of 5% or more and less than 20%)
- herbicidal effect rating, I: wild oat [7]: 0 (Herbicidal rate of 5% or less (almost no effect))
- herbicidal effect rating, J: blackgrass [8]: 0 (Herbicidal rate of 5% or less (almost no effect))
- herbicidal effect rating, K: Italian ryegrass [9]: 0 (Herbicidal rate of 5% or less (almost no effect))
- herbicidal effect rating, L: windgrass [10]: 0 (Herbicidal rate of 5% or less (almost no effect))
- herbicidal effect rating, M: velvetleaf [11]: 0 (Herbicidal rate of 5% or less (almost no effect))
- herbicidal effect rating, N: redroot pigweed [12]: 0 (Herbicidal rate of 5% or less (almost no effect))
- herbicidal effect rating, O: lambsquarters [13]: 0 (Herbicidal rate of 5% or less (almost no effect))
- herbicidal effect rating, P: chickweed [14]: 0 (Herbicidal rate of 5% or less (almost no effect))
- herbicidal effect rating, Q: false cleavers [15]: 0 (Herbicidal rate of 5% or less (almost no effect))
- herbicidal effect rating, R: persian speedwell [16]: 3 (Herbicidal rate of 40% or more and less than 70%)
- herbicidal effect grade, F: southern crabgrass [17]: 0 (Herbicidal rate of 5% or less (almost no effect))
- herbicidal effect grade, G: green foxtail [18]: 0 (Herbicidal rate of 5% or less (almost no effect))
- herbicidal effect grade, H: barnyard grass [19]: 0 (Herbicidal rate of 5% or less (almost no effect))
- herbicidal effect grade, I: wild oat [20]: 0 (Herbicidal rate of 5% or less (almost no effect))
- herbicidal effect grade, J: blackgrass [21]: 0 (Herbicidal rate of 5% or less (almost no effect))
- herbicidal effect grade, K: Italian ryegrass [22]: 3 (Herbicidal rate of 40% or more and less than 70%)
- herbicidal effect grade, L: windgrass [23]: 0 (Herbicidal rate of 5% or less (almost no effect))
- herbicidal effect grade, M: velvetleaf [24]: 0 (Herbicidal rate of 5% or less (almost no effect))
- herbicidal effect grade, N: redroot pigweed [25]: 3 (Herbicidal rate of 40% or more and less than 70%)
- herbicidal effect grade, O: lambsquarters [26]: 0 (Herbicidal rate of 5% or less (almost no effect))
- herbicidal effect grade, P: chickweed [27]: 0 (Herbicidal rate of 5% or less (almost no effect))
- herbicidal effect grade, Q: false cleavers [28]: 0 (Herbicidal rate of 5% or less (almost no effect))
- herbicidal effect grade, R: persian speedwell [29]: 5 (Herbicidal rate of 90% or more (almost completely withered))
